{"source": "paper PMC3951225", "about": "“Cytotoxic Sesquiterpene Lactones from Kauna lasiophthalma Griseb” (Scientia Pharmaceutica, 2014)", "format_in_all_cases": "cell-based, human", "key": {"MCF-7 cells": {"test_system": "MCF-7 cells", "test": "MTT cytotoxicity dose-response assay, MCF-7", "conditions": "72 h treatment, a/b/c = one, two, three or more dose-response curves", "protocol": "(§1) The L56Br-C1 cell line was established at the Department of Oncology, Clinical Sciences, Lund University, Sweden. The JIMT-1 cell line was purchased from the German Collection of Microorganisms and Cell Cultures (Braunschweig, Germany) and the MCF-7, SK-BR-3, HCC1937, and MCF-10A cells were obtained from the American Tissue Type Culture Collection (Manassas, VA, USA). The cell lines were cultured as monolayers at 37°C in a humidified incubator with 5% CO2 in air. The MCF-10A cells have a population doubling time of 15 hours, the JIMT-1 cells 24 hours, and the other four cell lines around 35 hours.\n(§2) The L56Br-C1, MCF-7, SK-BR-3, and HCC1937 cells were cultured as described by Holst et al. JIMT-1 cells were cultured in DMEM/Ham’s F12 medium supplemented with 10% fetal calf serum, non-essential amino acids (1 mM), insulin (10 μg/ml), penicillin (100 U/ml), and streptomycin (100 μg/ml). MCF-10A cells were maintained in RPMI 1640 medium supplemented with 10% heat-inactivated fetal calf serum, non-essential amino acids (1 mM), insulin (10 μg/ml), epidermal growth factor (20 ng/ml), cholera toxin (50 ng/ml), hydrocortisone (250 ng/ml), penicillin (100 U/ml), and streptomycin (100 μg/ml). The MCF-10A and JIMT-1 cell lines were sub-cultured twice a week, while the L56Br-C1, MCF-7, SK-BR-3, and HCC1937 cells were sub-cultured once a week with an additional change of growth medium once a week.\n(§3) Stock solutions ([…]) of the compounds were made in 100% DMSO. These were further diluted in PBS to obtain the correct concentrations used for the MTT assay. Appropriate DMSO controls were used. In general, the highest DMSO concentration was 0.1%, however, when treating with 100 μM and starting from a […] in 100% DMSO, a final concentration of 1% DMSO was used as the control.\n(§4) The MTT assay was performed as previously described. Briefly, the cells were trypsinized and counted in a hemocytometer. Aliquots of 180 μl cell suspensions containing 3000 (MCF-10A) and 6000 (MCF-7, SK-BR-3, JIMT-1, L56Br-C1, and HCC1937) cells were seeded in the wells of 96-well plates. Compounds were added 24 hours after seeding to allow the attachment of cells. A concentration range between 0.1 to 100 μM was used in the MTT assays and appropriate DMSO controls. At 72 h of drug treatment, 20 μl of MTT solution (5 mg/ml MTT in PBS) was added to each well and the 96-well plates were returned to the CO2 incubator for 1 hour. The MTT-containing medium was removed. The blue formazan product formed by the reduction in live attached cells was dissolved by adding 100 μl of 100% DMSO per well after removal of the MTT-containing medium. The plates were swirled gently at room temperature for 10 minutes to dissolve the precipitate. Absorbance was monitored at 540 nm in a Labsystems iEMS Reader MF (Labsystems Oy, Helsinki, Finland) using the DeltaSoft II v.4.14 software (Biometallics Inc., Princeton, NJ, USA). Dose-response curves were drawn based on the % of the control in Excel. The IC50 was deduced from the curves."}, "L56Br-C1 cells": {"test_system": "L56Br-C1 cells", "test": "MTT cytotoxicity dose-response assay, L56Br-C1", "conditions": "72 h treatment, a/b/c = one, two, three or more dose-response curves", "protocol": "as §1, §2, §3, §4"}, "SK-BR-3 cells": {"test_system": "SK-BR-3 cells", "test": "MTT cytotoxicity dose-response assay, SK-BR-3", "conditions": "72 h treatment, a/b/c = one, two, three or more dose-response curves", "protocol": "as §1, §2, §3, §4"}, "HCC1937 cells": {"test_system": "HCC1937 cells", "test": "MTT cytotoxicity dose-response assay, HCC1937", "conditions": "72 h treatment, a/b/c = one, two, three or more dose-response curves", "protocol": "as §1, §2, §3, §4"}, "JIMT-1 cells": {"test_system": "JIMT-1 cells", "test": "MTT cytotoxicity dose-response assay, JIMT-1", "conditions": "72 h treatment, a/b/c = one, two, three or more dose-response curves", "protocol": "as §1, §2, §3, §4"}, "[1]": {"test_system": "breast cancer cell lines HCC1937, JIMT-1, L56Br-C1, MCF-7, and SK-BR-3", "test": "MTT assay, panel of five breast cancer cell lines", "conditions": "for Anticancer activity / relative potency in words: breast cell lines, comparison among the tested compounds", "protocol": "The anticancer activities of sesquiterpenes 1, 3, 6–9, 11, 12, 14, and 16 were assessed in five breast-cancer cell lines, HCC1937, JIMT-1, L56Br-C1, MCF-7, and SK-BR-3, and compared with the cytotoxicity in the breast-derived non-cancerous cell line MCF-10A using the MTT colorimetric assay. […] 16 is an unsaturated ester and differs in that respect from the other compounds, but the lower activity of 3 compared to the similar compounds was unexpected. Costunolide (1) differs from the eudesmane sesquiterpenes by having the unsaturated lactone fused with a macrocyclic system instead of a cyclohexane ring, and the tension of the lactone ring is likely to be lower in 1. […] The difference in the activities of 7 and 8 may depend on the higher lipophilicity of 8, facilitating its absorption into the cells. In 11 and 14, the presence of a second Michael acceptor function may influence the activity. […] MCF-7 has a normal wild type p53 gene, which the MCF-10A cells also have, while the others have a mutated p53.\nas §3, §4"}, "[2]": {"test": "MTT cytotoxicity dose-response assay, MCF-10A (non-cancerous)", "conditions": "human, MCF-10A cells (normal-like breast epithelial cell line), 72 h treatment, a/b/c = one, two, three or more dose-response curves", "protocol": "as §1, §2, §3, §4"}, "MCF-10A cells": {"test_system": "MCF-10A cells", "test": "MTT cytotoxicity dose-response assay, MCF-10A (non-cancerous)", "conditions": "normal-like breast epithelial cell line, 72 h treatment, a/b/c = one, two, three or more dose-response curves", "protocol": "as §1, §2, §3, §4"}}, "note": "“Also recorded” adds a separate entry of the source.", "data": [{"smiles": "C=C1C(=O)O[C@@H]2/C=C(\\C)CC/C=C(\\C)CC[C@@H]12", "note": "[Compound 1, costunolide]", "values": [{"measurement": "IC50", "setting": "MCF-7 cells; Homo sapiens, MCF7, 72 h", "value": "5.3 ± 1.4", "unit": "µM"}, {"measurement": "IC50", "setting": "L56Br-C1 cells", "value": 4.8, "unit": "µM"}, {"measurement": "IC50", "setting": "L56Br-C1 cells; Homo sapiens, 72 h", "value": 3.7, "unit": "µM"}, {"measurement": "IC50", "setting": "SK-BR-3 cells; Homo sapiens, SK-BR-3, 72 h", "value": "2 ± 1", "unit": "µM"}, {"measurement": "IC50", "setting": "HCC1937 cells", "value": 4.2, "unit": "µM"}, {"measurement": "IC50", "setting": "HCC1937 cells; Homo sapiens, HCC1937, 72 h", "value": 2.2, "unit": "µM"}, {"measurement": "IC50", "setting": "JIMT-1 cells", "value": 6.3, "unit": "µM"}, {"measurement": "IC50", "setting": "JIMT-1 cells; Homo sapiens, JIMT-1, 72 h", "value": 6.2, "unit": "µM"}, {"measurement": "IC50", "setting": "[1]; Homo sapiens, five breast cancer cell lines, read-out: IC50 values, range over the cancer cell lines", "value": "2 to 6.2", "unit": "µM"}, {"measurement": "Anticancer activity / relative potency in words", "setting": "[1]", "value": "most active in all of the cell lines"}, {"measurement": "IC50 at 72 h", "setting": "[2]", "value": 20, "unit": "µM"}]}, {"smiles": "COC(=O)C(N)CSCC1C(=O)OC2C1CCC1(C)C(O)CC=C(C)C21", "note": "(stereo not drawn) [Compound 21]", "values": [{"measurement": "IC50", "setting": "MCF-7 cells; Homo sapiens, MCF7, 72 h", "value": "> 100", "unit": "µM"}, {"measurement": "IC50", "setting": "L56Br-C1 cells; Homo sapiens, 72 h", "value": 73, "unit": "µM"}, {"measurement": "IC50", "setting": "SK-BR-3 cells", "value": 40, "unit": "µM"}, {"measurement": "IC50", "setting": "SK-BR-3 cells; Homo sapiens, SK-BR-3, 72 h", "value": 51, "unit": "µM"}, {"measurement": "IC50", "setting": "HCC1937 cells; Homo sapiens, HCC1937, 72 h", "value": 100, "unit": "µM"}, {"measurement": "IC50", "setting": "JIMT-1 cells; Homo sapiens, JIMT-1, 72 h", "value": "> 100", "unit": "µM"}, {"measurement": "Anticancer activity / relative potency in words", "setting": "[1]", "value": "significantly less potent; also recorded: inactive or considerably less potent"}, {"measurement": "IC50 at 72 h", "setting": "[2]", "value": 41, "unit": "µM"}]}, {"smiles": "C=C1C(=O)OC2C1CCC1(C)C(O)CCC(=C)C21", "note": "(stereo not drawn) [Compound 7, 1-epi-reynosin]", "values": [{"measurement": "IC50", "setting": "MCF-7 cells", "value": 30, "unit": "µM"}, {"measurement": "IC50", "setting": "MCF-7 cells; Homo sapiens, MCF7, 72 h", "value": 23, "unit": "µM"}, {"measurement": "IC50", "setting": "L56Br-C1 cells", "value": 10.1, "unit": "µM"}, {"measurement": "IC50", "setting": "L56Br-C1 cells; Homo sapiens, 72 h", "value": 9, "unit": "µM"}, {"measurement": "IC50", "setting": "SK-BR-3 cells", "value": 6.4, "unit": "µM"}, {"measurement": "IC50", "setting": "SK-BR-3 cells; Homo sapiens, SK-BR-3, 72 h", "value": 7.6, "unit": "µM"}, {"measurement": "IC50", "setting": "HCC1937 cells", "value": 18.5, "unit": "µM"}, {"measurement": "IC50", "setting": "HCC1937 cells; Homo sapiens, HCC1937, 72 h", "value": 12, "unit": "µM"}, {"measurement": "IC50", "setting": "JIMT-1 cells", "value": 14, "unit": "µM"}, {"measurement": "IC50", "setting": "JIMT-1 cells; Homo sapiens, JIMT-1, 72 h", "value": 12, "unit": "µM"}, {"measurement": "IC50 at 72 h", "setting": "[2]", "value": 22, "unit": "µM"}]}, {"smiles": "C=C1C(=O)O[C@@H]2[C@H]3C(C)=CC[C@@H](O)[C@]3(C)CC[C@@H]12", "note": "[Compound 9, santamarin]", "values": [{"measurement": "IC50", "setting": "MCF-7 cells; Homo sapiens, MCF7, 72 h", "value": "9.7 ± 0.9", "unit": "µM"}, {"measurement": "IC50", "setting": "L56Br-C1 cells; Homo sapiens, 72 h", "value": "12.3 ± 5.5", "unit": "µM"}, {"measurement": "IC50", "setting": "SK-BR-3 cells; Homo sapiens, SK-BR-3, 72 h", "value": "3.1 ± 0.6", "unit": "µM"}, {"measurement": "IC50", "setting": "HCC1937 cells; Homo sapiens, HCC1937, 72 h", "value": "8.1 ± 1.8", "unit": "µM"}, {"measurement": "IC50", "setting": "JIMT-1 cells", "value": 7.2, "unit": "µM"}, {"measurement": "IC50", "setting": "JIMT-1 cells; Homo sapiens, JIMT-1, 72 h", "value": 6.9, "unit": "µM"}, {"measurement": "IC50 at 72 h", "setting": "[2]", "value": 17, "unit": "µM"}]}, {"smiles": "C=C1C(=O)O[C@@H]2[C@H]3C(C)=CC(=O)C3=C(C)CC[C@@H]12", "note": "[Compound 14, dehydroleucodin]", "values": [{"measurement": "IC50", "setting": "MCF-7 cells", "value": 4.3, "unit": "µM"}, {"measurement": "IC50", "setting": "MCF-7 cells; Homo sapiens, MCF7, 72 h", "value": 3.3, "unit": "µM"}, {"measurement": "IC50", "setting": "L56Br-C1 cells", "value": 10, "unit": "µM"}, {"measurement": "IC50", "setting": "L56Br-C1 cells; Homo sapiens, 72 h", "value": 5.8, "unit": "µM"}, {"measurement": "IC50", "setting": "SK-BR-3 cells; Homo sapiens, SK-BR-3, 72 h", "value": "2.5 ± 0.4", "unit": "µM"}, {"measurement": "IC50", "setting": "HCC1937 cells", "value": 5.2, "unit": "µM"}, {"measurement": "IC50", "setting": "HCC1937 cells; Homo sapiens, HCC1937, 72 h", "value": 3, "unit": "µM"}, {"measurement": "IC50", "setting": "JIMT-1 cells", "value": 8.1, "unit": "µM"}, {"measurement": "IC50", "setting": "JIMT-1 cells; Homo sapiens, JIMT-1, 72 h", "value": 7.5, "unit": "µM"}, {"measurement": "IC50", "setting": "MCF-10A cells", "value": 23, "unit": "µM"}, {"measurement": "IC50 at 72 h", "setting": "[2]", "value": 20, "unit": "µM"}]}]}
